Earlier results in patent US8791150B2, “Pharmaceutical composition for peroral administration of diindolylmethane” (Zakrytoe Aktsionernoe Obschestvo “Veles Farma”, priority 2009, dated 2014).

How the values were obtained:
[1] = tested on: cellular cervical cancer lines; details: one of the three cellular cervical cancer lines studied; cited from earlier work
[2] = tested on: pathological neoangiogenesis; details: injected subcutaneously, 5 mg/kg daily; cited from earlier work
[3] = tested on: normal (untransformed) keratinocytes; details: in vitro; cited from earlier work

SMILES | LD50 [1] | suppression of pathological neoangiogenesis [2] | apoptotic changes in normal keratinocytes [3]
OCc1c[nH]c2ccccc12 [Pluronic I3C, indole-3-carbinol] | 200 µM |  | 
c1ccc2c(Cc3c[nH]c4ccccc34)c[nH]c2c1 [DIM, 3,3′-diindolylmethane] |  | 74% | did not induce any apoptotic changes
